System: human IgG+IgM serum antibodies
Assay: OppA2 peptide ELISA
Format: binding
Conditions: for binding of antibodies present in RPR+ serum: 26 RPR+ sera
Protocol: 96-well plates (Nunc Maxisorp) were coated with 10 μg/mL peptide, diluted in 0.1M carbonate-bicarbonate buffer, pH 9.4 (50 μL per well), for 1 hour at room temperature. Blocking buffer 1% bovine serum albumin (BSA) in PBS was added to the wells (250 μL/well) and incubated overnight at 4° C. Wells were washed three times with PBS containing 0.05% Tween 20 (PBS-T) and incubated for 2 hours at room temperature with human samples diluted 1:100 in PBS-1% BSA. Each plate included samples from patients and healthy donors, and all samples were assayed in triplicate. After washing, wells were incubated for 1 hour at RT with a 1:15,000 dilution of HRP-conjugated secondary antibody against human IgG+IgM. Reactions were developed for 30 minutes with 3,3′,5,5′-tetramethylbenzidine (TMB) in the dark at room temperature and the reaction was stopped by the addition of 2N H2SO4. Optical densities were determined at 450 nm and 570 nm wavelengths using a SpectraMax Plus plate reader (Molecular Devices). The cutoff for seropositivity was defined as the mean optical density (OD) of the healthy control samples plus two standard deviations (SD).
OppA2 peptides react specifically with antibodies from Lyme disease patients. The nine peptides were further screened by ELISA using serum or plasma obtained from 104 patients with physician-diagnosed Lyme disease. All patients presented with one or more EM. Control sera was obtained from 45 healthy donors residing in a region of the United States non-endemic for LD, New Mexico. All peptides were incubated with serum in triplicate, and results were validated in two independent experiments. For each peptide, the threshold value for immunoreactivity was defined as the mean optical density (OD) value plus two standard deviations (SD) of results obtained using healthy donor sera. […] OppA2 (191-225) and OppA2 (381-400) were detected by only 2.2% and 6.7%, respectively, of the healthy donor samples.

[1] = Control sera, Healthy blood donors
[2] = Lyme Disease sera, Blood culture negative (localized)
[3] = Lyme Disease sera, Blood culture positive (disseminated)
[4] = Lyme Disease sera, EM positive (1st visit)
[5] = Lyme Disease sera, Elisa Positive

Sequence: SDYYSSAVNAIYFYAFNTHIKPLDN (listed as Borrelia sp.) [OppA (276-300)]
- binding of antibodies present in RPR+ serum (in words): did not bind
- Antibody positivity, % positive [1]: 4.4%
- Antibody positivity, N° positive/Total [1]: 2/45
- Antibody positivity, % positive (Control sera, RA): 0%
- Antibody positivity, N° positive/Total (Control sera, RA): 0/30
- Antibody positivity, % positive (Control sera, Syphilis (RPR+)): 0%
- Antibody positivity, N° positive/Total (Control sera, Syphilis (RPR+)): 0/26
- Antibody positivity, % positive [2]: 0%
- Antibody positivity, N° positive/Total [2]: 0/13
- Antibody positivity, % positive [3]: 0%
- Antibody positivity, N° positive/Total [3]: 0/10
- Antibody positivity, % positive [4]: (36.6) %
- Antibody positivity, N° positive/Total [4]: 34/104
- Antibody positivity, % positive (Lyme Disease sera, EM positive (1st visit), listed as OppA2 (276-300)): 36.6%
- Antibody positivity, % positive [5]: (22.9) %
- Antibody positivity, N° positive/Total [5]: 8/35
- Antibody positivity, % positive (Lyme Disease sera, Wisconsin): (56.5) %
- Antibody positivity, N° positive/Total (Lyme Disease sera, Wisconsin): 26/46

Sequence: APIYIYGNSYLFRND (listed as Borrelia burgdorferi) [OppA2 (495-505)]
- reactivity of Lyme disease patient sera compared with sera from healthy donors (in words): comparable to that of sera from healthy donors

Sequence: IYFYSFNTHIKPLDNVKIRKALTLA (listed as Borrelia sp.) [OppA (286-310)]
- binding of antibodies present in RPR+ serum (in words): did not bind
- Antibody positivity, % positive [1]: 4.4%
- Antibody positivity, N° positive/Total [1]: 2/45
- Antibody positivity, % positive (Control sera, RA): 0%
- Antibody positivity, N° positive/Total (Control sera, RA): 0/30
- Antibody positivity, % positive (Control sera, Syphilis (RPR+)): 0%
- Antibody positivity, N° positive/Total (Control sera, Syphilis (RPR+)): 0/26
- Antibody positivity, % positive [2]: 0%
- Antibody positivity, N° positive/Total [2]: 0/13
- Antibody positivity, % positive [3]: 0%
- Antibody positivity, N° positive/Total [3]: 0/10
- Antibody positivity, % positive [4]: (43.6) %
- Antibody positivity, N° positive/Total [4]: 44/104
- Antibody positivity, % positive (Lyme Disease sera, EM positive (1st visit), listed as OppA2 (286-310)): 43.6%
- Antibody positivity, % positive [5]: (22.9) %
- Antibody positivity, N° positive/Total [5]: 8/35
- Antibody positivity, % positive (Lyme Disease sera, Wisconsin): (78.3) %
- Antibody positivity, N° positive/Total (Lyme Disease sera, Wisconsin): 36/46
